# *1 amine or outer side, *2 acyl side, *3 side chain or, on linkers, in order; H or OH if unused. [ ]: non-standard residue; d: D form. PEG (Jeffamine) = not defined here; Suc = O=C(CCC(=O)[*:2])[*:1]
# Tests used:
# CA1 hippocampal neurones = assay: Gerbil model of brain ischemia, intact CA1 hippocampal neurones; format: in vivo, Mongolian gerbils; details: 25 μg injection, 7 days after the insult
# Procedure: Other experiments were carried out using a Gerbil model of brain ischemia.
# In the gerbil brain, bilateral ligation of the common carotid arteries invariably produces specific hippocampal lesions: in the CA1 region, pyramidal neurones start to die 3-4 days after ischemia.
# Male Mongolian gerbils weighing 50-60 g were used. The ischemic insult was performed by 5 min. ligation of the common carotid arteries under halotane in N2O:O2 (70:30) anaesthesia in strictly controlled normothermic conditions as previously described (Domańiska-Janik et al., 2004). The cerebral blood flow was continuously monitored by laser Doppler flowmetry (Muro, Inc.). […] Sham operated animals were injected with the same dose of the peptide.
# The animals were allowed a recovery period of one week, then were perfused with ice-cold 4% paraformaldehyde in PBS under pentobarbital anaesthesia. The histological evaluation was performed on paraffin-embedded and fixed, 10 mm-thick sections stained by hematoxylline/eosine. The extent of cell damage in the CA1 hippocampal region was quantified, under a Zeiss Axioscop 2, as the mean number of the persisted, intact neurons in the coronal sections. At least three defined 300 μm fields of the CA1 region were captured using a MC 10095 camera (Carl Zeiss Jena GmbH) and counted in a computer-assisted image analysis system (KS 300, Carl Zeiss Jena GmbH).
# C2C12 muscle cells = assay: C2C12 proliferation, Alamar Blue assay; format: cell-based, mouse; details: 2000 cells per well; 2, 5, 50 and 100 ng/ml; medium with IGF-I 2 ng per ml; 36 hours
# Procedure: (A) DMGF and CMGF Peptides: C2C12 Cells were provided at 2000 cell/well, in a medium containing DMEM (1000 mg/L glucose), plus BSA(100 ug/ml), plus IGF-I (2 ng per ml) and incubated for 36 hours. Cell proliferation was then assessed using an Alamar Blue assay. […] Y-axis values are fluorescence (wavelength of excitation 535 nm, measurement at 590 nm; mean plus standard error) in an Alamar Blue assay.
# The 8 amino acid peptides described in 1.3.1 above and referred to in FIG. 8A as DMGF and CMGF were tested for the ability to induce proliferation of C2C12 muscle cells at a density of 2000 cells per well in a medium containing DMEM (1000 mg/L glucose), BSA (10 ug/ml) and IGF-I (2 ng per ml). Concentrations of 2, 5, 50 and 100 ng/ml of DMGF and CMGF were tested (See the left-hand and middle sets of results in FIG. 8), along with 2, 5, 50 and 100 ng/ml IGF-I alone (See the right-hand set of results in FIG. 8). After 36 hours incubation, an Alamar Blue assay was used to assess the level of cell proliferation achieved. A control containing only the medium was also provided.
# [1] = tested on: normal lower limb (quadriceps) primary cultures; assay: Desmin positive cell proliferation, normal lower limb (quadriceps) primary cultures; format: cell-based, human; details: for desmin positive cells as percentage of total cells: peptide alone, 10 ng/ml, mean±s.d.
# From the text: Human primary muscle cell cultures were isolated as previously described [Lewis et al., 2000; Sinanan et al., 2004]. Briefly, following informed consent, craniofacial (masseter) muscle biopsies were obtained from healthy adult and CMD patients during elective surgery at the Eastman and Middlesex Hospitals, London, UK. Human lower limb (vastus lateralis) muscle samples were obtained from consenting, adult healthy, FSHD and ALS patients by needle biopsy under local anaesthesia at the Royal Free Hospital, London, UK. Biopsies were pooled from several patients with the same disorder to obtain sufficient cell numbers in the primary cultures. These were washed with antibiotic (penicillin, 100 U/ml; streptomycin, 100 μg/ml; fungizone, 2.5 μg/ml; Invitrogen) supplemented DMEM (high glucose; Invitrogen), scissor-minced and tissue fragments plated into 0.2% gelatin-coated (Sigma-Aldrich) T150 cm^2 culture flasks (Helena Biosciences). Explant cultures were incubated in serum-containing Growth Media (sGM), composed of DMEM, 20% FCS (PAA Laboratories), penicillin (100 U/ml) and streptomycin ([…]) (Invitrogen), and maintained at 37° C. in humidified 95% air with 5% CO2. The first wave of migration of mononuclear cells from the explant was designated the […]-wave and this population was used throughout this study. Migratory human muscle cell were enzymatically harvested using trypsin-EDTA (Invitrogen) and subcultured in sGM until 70-80% confluency. Passage number x (Px), was defined as the xth sequential harvest of subconfluent cells. All experiments were performed using P3-5 cohorts. […]
# (§1) At the appropriate time-points, cells were fixed with methanol for 10 min (−20° C.), followed by detergent permeabilization with 0.5% Triton-X100 for 10-15 min. […] Cell-associated fluorescence and morphology, were visualized by epi-fluorescence and Leica Modulation Contrast (LMC) microscopy respectively, using an inverted Leica DMIRB microscope equipped with Leica FW4000 image processing software. For the proliferation assay, all blue and green fluorescent positive cells were counted in a field. […]
# [2] = tested on: primary cultures derived from congenital muscular dystrophy (CMD); assay: Desmin positive cell proliferation, primary cultures from congenital muscular dystrophy (CMD); format: cell-based, human; details: for desmin positive cells as percentage of total cells: peptide alone, 10 ng/ml, mean±s.d.
# From the text: Human primary muscle cell cultures were isolated as previously described [Lewis et al., 2000; Sinanan et al., 2004]. Briefly, following informed consent, craniofacial (masseter) muscle biopsies were obtained from healthy adult and CMD patients during elective surgery at the Eastman and Middlesex Hospitals, London, UK. Human lower limb (vastus lateralis) muscle samples were obtained from consenting, adult healthy, FSHD and ALS patients by needle biopsy under local anaesthesia at the Royal Free Hospital, London, UK. Biopsies were pooled from several patients with the same disorder to obtain sufficient cell numbers in the primary cultures. These were washed with antibiotic (penicillin, 100 U/ml; streptomycin, 100 μg/ml; fungizone, 2.5 μg/ml; Invitrogen) supplemented DMEM (high glucose; Invitrogen), scissor-minced and tissue fragments plated into 0.2% gelatin-coated (Sigma-Aldrich) T150 cm^2 culture flasks (Helena Biosciences). Explant cultures were incubated in serum-containing Growth Media (sGM), composed of DMEM, 20% FCS (PAA Laboratories), penicillin (100 U/ml) and streptomycin ([…]) (Invitrogen), and maintained at 37° C. in humidified 95% air with 5% CO2. The first wave of migration of mononuclear cells from the explant was designated the […]-wave and this population was used throughout this study. Migratory human muscle cell were enzymatically harvested using trypsin-EDTA (Invitrogen) and subcultured in sGM until 70-80% confluency. Passage number x (Px), was defined as the xth sequential harvest of subconfluent cells. All experiments were performed using P3-5 cohorts. The expanded cells were then stored under cryogenic conditions until they were used in the experiments described below. At least 6 runs were made for each of the treatments used for each diseased muscle culture as well as for the two types of healthy muscle.
# Assessment of the number of myogenic precursors was performed as described previously (Sinanan et al., 2004). Cells were re-plated on gelatin-coated (0.2%) 13 mm coverslips at an initial density of 4.5×10^3 cells cm^−2. […]
# as §1
# [3] = tested on: tibialis anterior muscle of non-dystrophic mice; assay: Intramuscular injection into tibialis anterior of non-dystrophic mice, muscle strength; format: in vivo; details: i.m. twice weekly 25 μl containing 17 μg, within a few weeks
# infarcted murine heart = assay: Murine myocardial infarction (LAD ligation), pressure/volume loops; format: in vivo, mice; details: murine MI by LAD ligation; systemic administration
# Procedure: All panels show pressure (mmHg) on the Y-axis and Relative Volume Units on the X-axis.
# Additional experiments were carried out on mice. In these studies the MI was produced by ligating the left anterior descending (LAD) coronary artery of the murine heart. This causes dilation of the left ventricle, the progression of which leads to heart failure. […] Therefore there is considerable potential for treatment of patients immediately following a heart attack.
# [4] = Stability to proteolytic cleavage in fresh human plasma, Western blotting; details: fresh human plasma plus PBS, 37° C., 24 hours
# Procedure: Western blotting was then used to assess the survival of each peptide over those time intervals: A=0 minutes; B=30 minutes; C=2 hours; D=24 hours.
# Stability may be assessed in terms of half-life in human plasma or by any other suitable technique. In particular, stability can be measured by assessing peptides' susceptibility to proteolytic cleavage in fresh human plasma according to the technique of Example 5.1 below, in which the plasma was stored until used at −70° C., 10 μg of peptide was added to 2 ml of plasma, plus 7 ml of PBS and the mixture was incubated at 37° C. for different time intervals. Western blotting was then used to detect each peptide over those time intervals.
# The plasma was stored until used at −70° C. 10 μg of peptide were added to 2 ml of plasma, plus 7 ml of PBS. This mixture was incubated at 37° C. for different time intervals.
# Like biological activity, stability was scored on a scale of 0 to 3.
# Stability was determined as the amount of the peptide that remained intact and bound to the specific antibody in the following way:
# [5] = stabilised peptide in combination with IGF-I
Substance,CA1 neurones as % of the control neuronal cell number (side not stated) (CA1 hippocampal neurones),number of CA1 neurones left (side not stated) (CA1 hippocampal neurones),proliferation of C2C12 cells (Alamar Blue fluorescence) (C2C12 muscle cells),desmin positive cells as percentage of total cells [1],desmin positive cells as percentage of total cells [2],increase in muscle strength [3],strength and function of the heart by pressure/volume loops (infarcted murine heart),"desmin positive cells as percentage of total cells, IGF-I added [1, 5]","desmin positive cells as percentage of total cells, IGF-I added [2, 5]","desmin positive cells as percentage of total cells, plus anti-IGF-I receptor antibody Ab-1 ([2]; stabilised peptide plus Ab-1)",peptide detected by Western blotting after 24 hours [4]
"IGF-I: IGF-I receptor binding domain encoded by Exons 3 and 4, common to all splice variants, approximately 70 amino acids [reference compound]",15.8%,19.2±7.3 neurones,statistically different to the control value,47.1±3.5%,13.2±1.7%,–,–,–,–,–,–
"stabilised peptide: SEQ ID NO: 15 with D-Arginine at positions 14 and 15, N-terminus attached to PEG (Jeffamine) via succinic acid bridge, amidated at C-terminus ({PEG (Jeffamine)-Suc}-YQPPSTNKNTKSQ[dR][dR]KGSTFEEHK-NH2; reading uncertain)",–,–,–,57.9±3.2%,17.5±1.6%,more than 25%,markedly improved the strength and function of the heart,38.8±0.6%,13.1±1.2%,16.7±1.8%,detected in abundance
